# Where two headings read alike, the source gives them in different places.
# What was measured:
# [1] = test system: H929 multiple myeloma tumor line; assay: In vitro cytotoxicity, MTT assay (Example B, Method A); assay type: cell-based; settings: H929 cells, 48 hours exposure, read-out: C50
# Method: The cytotoxicity studies were carried out on the H929 multiple myeloma tumor line.
# The cells are distributed onto microplates and exposed to the test compounds for 48 hours. The cell viability is then quantified by a colorimetric assay, the Microculture Tetrazolium Assay (Carmichael et al, Cancer Res. 1987, 47, 939-942).
# The results are expressed in C50 which means concentration corresponding to […] of effect/inhibition.
# Mcl-1 protein = Mcl-1 protein (UniProtKB Q07820) (Homo sapiens (Human), UniProt Q07820); assay: Inhibition of Mcl-1 by the fluorescence polarisation assay (Example A, Method A); assay type: binding; settings: fluorescence polarization assay
# Summary of the method: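 Protein (5 nM) and fluorescein-tagged peptide tracer (1 nM) incubated with 11-point compound series for 2 h at room temperature in HEPES/NaCl/Tween 20 buffer, pH 7.4, 5% DMSO. Displacement read as decrease in polarisation; IC50 fitted by 4-parameter logistic, converted to Ki (cKi or eKi).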
# Chain of Mcl-1 protein (Q07820 whole entry): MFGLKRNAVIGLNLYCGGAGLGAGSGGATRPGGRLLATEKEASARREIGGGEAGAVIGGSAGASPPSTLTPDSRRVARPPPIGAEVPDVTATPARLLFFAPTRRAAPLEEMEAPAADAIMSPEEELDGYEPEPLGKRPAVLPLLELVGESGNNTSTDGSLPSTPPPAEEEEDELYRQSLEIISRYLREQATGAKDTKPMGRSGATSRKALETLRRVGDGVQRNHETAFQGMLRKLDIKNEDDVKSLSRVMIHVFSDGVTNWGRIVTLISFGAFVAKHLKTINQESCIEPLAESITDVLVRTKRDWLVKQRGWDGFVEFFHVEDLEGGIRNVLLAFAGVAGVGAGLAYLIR
SMILES,Ki (Mcl-1 protein),"IC50 ([1]; Homo sapiens, NCI-H929, 48 h)",IC50 [1]
"O=C(O)[C@]1(Nc2cccc(Cl)c2)CC[C@]2(CC1)C(COCCc1ccccc1)=Cc1ccccc12 [Example 409, (1s,4s)-4-(3-chloroanilino)-2′-[(2-phenylethoxy)methyl]spiro[cyclohexane-1,1′-indene]-4-carboxylic acid]",155 nM,30000 nM,–
"O=C(O)[C@]1(Nc2cccc(Cl)c2)CC[C@]2(CC1)C(c1cccc(OCc3cccnc3)c1)=Cc1ccccc12 [Example 363, (1s,4s)-4-(3-chloroanilino)-2′-{3-[(pyridin-3-yl)methoxy]phenyl}spiro[cyclohexane-1,1′-indene]-4-carboxylic acid]",227 nM,30000 nM,–
"O=C(O)[C@]1(Nc2cccc(Cl)c2)CC[C@]2(CC1)C(CCCOc1ccnc3ccsc13)=Cc1ccccc12 [Example 442, (1r,4r)-4-(3-chloroanilino)-2′-{3-[(thieno[3,2-b]pyridin-7-yl)oxy]propyl}spiro[cyclohexane-1,1′-indene]-4-carboxylic acid]",107 nM,5790 nM,–
"CC(C)C(COc1cccnc1)CC1Cc2ccccc2[C@]12CC[C@@](Nc1cccc(Cl)c1)(C(=O)O)CC2 (single isomer, unassigned) [Example 528, (1r,4r)-4-(3-chloroanilino)-2′-(3-methyl-2-{[(pyridin-3-yl)oxy]methyl}butyl)-2′,3′-dihydrospiro[cyclohexane-1,1′-indene]-4-carboxylic acid]",3280 nM,–,30000 nM
"CCC1Cc2ccccc2C12CCC(Nc1cccc(Br)c1)(C(=O)O)CC2 (stereo not drawn) [Example 147, 4-(3-bromoanilino)-2′-ethyl-2′,3′-dihydrospiro[cyclohexane-1,1′-indene]-4-carboxylic acid]",816 nM,30000 nM,–
"Cc1c[nH]c2cccc(OCCC[C@@H]3Cc4ccccc4[C@]34CC[C@@](Nc3cccc(Cl)c3)(C(=O)O)CC4)c12 [Example 483, (1r,2′R,4R)-4-(3-chloroanilino)-2′-{3-[(3-methyl-1H-indol-4-yl)oxy]propyl}-2′,3′-dihydrospiro[cyclohexane-1,1′-indene]-4-carboxylic acid]",174 nM,4170 nM,–
"CC(C)C(COc1ccnc2ccsc12)CC1Cc2ccccc2C12CCC(Nc1cccc(Cl)c1)(C(=O)O)CC2 (stereo not drawn) [Example 525, (1r,4r)-4-(3-chloroanilino)-2′-(3-methyl-2-{[(thieno[3,2-b]pyridin-7-yl)oxy]methyl}butyl)-2′,3′-dihydrospiro[cyclohexane-1,1′-indene]-4-carboxylic acid]",293 nM,–,2490 nM
"O=C(O)[C@]1(Nc2cccc(Cl)c2)CC[C@@]2(CC1)c1ccccc1CC2CCCOc1ncnc2c1CCC2 (mixture of isomers) [Example 459, (1r,4r)-4-(3-chloroanilino)-2′-{3-[(6,7-dihydro-5H-cyclopenta[d]pyrimidin-4-yl)oxy]propyl}-2′,3′-dihydrospiro[cyclohexane-1,1′-indene]-4-carboxylic acid]",85.7 nM,6960 nM,–
"CC(C)COc1ccc2c(c1)[C@]1(CC[C@@](Nc3cccc(Cl)c3)(C(=O)O)CC1)C(c1cccc(Oc3ccccc3)c1)C2 (single isomer, unassigned) [Example 385, (1r,4r)-4-(3-chloroanilino)-6′-(2-methylpropoxy)-2′-(3-phenoxyphenyl)-2′,3′-dihydrospiro[cyclohexane-1,1′-indene]-4-carboxylic acid]",810 nM,18900 nM,–
"O=C(O)[C@]1(Nc2cccc(Cl)c2)CC[C@@]2(CC1)c1ccccc1C[C@@H]2C[C@@H](COc1ccnc2ccsc12)c1ccccc1 [Example 545, (1r,2′S,4S)-4-(3-chloroanilino)-2′-{(2R)-2-phenyl-3-[(thieno[3,2-b]pyridin-7-yl)oxy]propyl}-2′,3′-dihydrospiro[cyclohexane-1,1′-indene]-4-carboxylic acid]",3490 nM,8920 nM,–
"CC[C@H](COc1ccnc2ccsc12)C[C@H]1Cc2ccccc2[C@]12CC[C@@](Nc1cccc(Cl)c1)(C(=O)O)CC2 [Example 537, (1r,2′S,4S)-4-(3-chloroanilino)-2′-[(2S)-2-{[(thieno[3,2-b]pyridin-7-yl)oxy]methyl}butyl]-2′,3′-dihydrospiro[cyclohexane-1,1′-indene]-4-carboxylic acid]",575 nM,16000 nM,–
"CC[C@H](COc1ccnc2ccsc12)C[C@@H]1Cc2ccccc2[C@]12CC[C@@](Nc1cccc(Cl)c1)(C(=O)O)CC2 [Example 536, (1r,2′R,4R)-4-(3-chloroanilino)-2′-[(2S)-2-{[(thieno[3,2-b]pyridin-7-yl)oxy]methyl}butyl]-2′,3′-dihydrospiro[cyclohexane-1,1′-indene]-4-carboxylic acid]",2100 nM,17200 nM,–
"O=C(O)[C@]1(Nc2cccc(Cl)c2)CC[C@@]2(CC1)c1ccccc1C[C@H]2C[C@H](COc1ccncc1)c1ccccc1 [Example 554, (1r,2′R,4R)-4-(3-chloroanilino)-2′-{(2S)-2-phenyl-3-[(pyridin-4-yl)oxy]propyl}-2′,3′-dihydrospiro[cyclohexane-1,1′-indene]-4-carboxylic acid]",323 nM,30000 nM,–
"O=C(O)[C@]1(Nc2cccc(Cl)c2)CC[C@@]2(CC1)c1ccccc1C[C@H]2C[C@@H](COc1cccnc1)c1ccccc1 [Example 549, (1r,2′R,4R)-4-(3-chloroanilino)-2′-{(2R)-2-phenyl-3-[(pyridin-3-yl)oxy]propyl}-2′,3′-dihydrospiro[cyclohexane-1,1′-indene]-4-carboxylic acid]",9480 nM,17900 nM,–
"Cc1cnccc1OCCC[C@@H]1Cc2ccccc2[C@]12CC[C@@](Nc1cccc(Cl)c1)(C(=O)O)CC2 [Example 448, (1r,2′R,4R)-4-(3-chloroanilino)-2′-{3-[(3-methylpyridin-4-yl)oxy]propyl}-2′,3′-dihydrospiro[cyclohexane-1,1′-indene]-4-carboxylic acid]",65.4 nM,10500 nM,–
"CC(C)C(COc1ccccc1)CC1Cc2ccccc2[C@]12CC[C@@](Nc1cccc(Cl)c1)(C(=O)O)CC2 (single isomer, unassigned) [Example 530, (1r,4r)-4-(3-chloroanilino)-2′-[3-methyl-2-(phenoxymethyl)butyl]-2′,3′-dihydrospiro[cyclohexane-1,1′-indene]-4-carboxylic acid]",2050 nM,15300 nM,–
"COc1ccc2c(c1)[C@]1(CC[C@@](Nc3cccc(Cl)c3)(C(=O)O)CC1)C(c1cccc(Oc3ccccc3)c1)C2 (single isomer, unassigned) [Example 378, (1r,4r)-4-(3-chloroanilino)-6′-methoxy-2′-(3-phenoxyphenyl)-2′,3′-dihydrospiro[cyclohexane-1,1′-indene]-4-carboxylic acid]",63.2 nM,9240 nM,–

# Further lines, with some results ahead:
Ki (Mcl-1 protein),SMILES,"IC50 ([1]; Homo sapiens, NCI-H929, 48 h)",IC50 [1]
32.3 nM,"C[C@@H](COc1ccnc2c1CCC[C@@H]2O)C[C@H]1Cc2ccccc2[C@]12CC[C@@](Nc1cccc(Cl)c1)(C(=O)O)CC2 [Example 669, (1r,2′S,4S)-4-(3-chloroanilino)-2′-[(2R)-3-{[(8S)-8-hydroxy-5,6,7,8-tetrahydroquinolin-4-yl]oxy}-2-methylpropyl]-2′,3′-dihydrospiro[cyclohexane-1,1′-indene]-4-carboxylic acid]",1520 nM,–
61.5 nM,"O=C(O)[C@]1(Nc2cccc(Cl)c2)CC[C@]2(CC1)C(CCOc1cccc3[nH]ccc13)=Cc1ccccc12 [Example 192, (1r,4r)-4-(3-chloroanilino)-2′-{2-[(1H-indol-4-yl)oxy]ethyl}spiro[cyclohexane-1,1′-indene]-4-carboxylic acid]",4190 nM,–
58.8 nM,"COCCOc1ccc2c(c1)[C@]1(CC[C@@](Nc3cccc(Cl)c3)(C(=O)O)CC1)C(c1cccc(Oc3ccccc3)c1)C2 (single isomer, unassigned) [Example 384, (1r,4r)-4-(3-chloroanilino)-6′-(2-methoxyethoxy)-2′-(3-phenoxyphenyl)-2′,3′-dihydrospiro[cyclohexane-1,1′-indene]-4-carboxylic acid]",11400 nM,–
51.9 nM,"C[C@@H](COc1ccncc1)C[C@H]1Cc2ccccc2[C@]12CC[C@@](Nc1cccc(Cl)c1)(C(=O)O)CC2 [Example 582, (1r,2′S,4S)-4-(3-chloroanilino)-2′-{(2R)-2-methyl-3-[(pyridin-4-yl)oxy]propyl}-2′,3′-dihydrospiro[cyclohexane-1,1′-indene]-4-carboxylic acid]",2550 nM,–
3.37 nM,"CC1CCc2nccc(OC[C@H](C)CC3Cc4ccccc4[C@]34CC[C@@](Nc3cccc(Cl)c3)(C(=O)O)CC4)c21 (mixture of isomers) [Example 602, (1r,4R)-4-(3-chloroanilino)-2′-{(2R)-2-methyl-3-[(5-methyl-6,7-dihydro-5H-cyclopenta[b]pyridin-4-yl)oxy]propyl}-2′,3′-dihydrospiro[cyclohexane-1,1′-indene]-4-carboxylic acid]",518 nM,–
24.2 nM,"Cc1csc2nccc(OC[C@H](C)C[C@H]3Cc4ccccc4[C@]34CC[C@@](Nc3cccc(Cl)c3)(C(=O)O)CC4)c12 [Example 605, (1r,2′S,4S)-4-(3-chloroanilino)-2′-{(2R)-2-methyl-3-[(3-methylthieno[2,3-b]pyridin-4-yl)oxy]propyl}-2′,3′-dihydrospiro[cyclohexane-1,1′-indene]-4-carboxylic acid]",906 nM,–
31.2 nM,"C[C@@H](COc1ccnc2c1CCC2)CC1Cc2ccccc2[C@]12CC[C@@](Nc1ccccc1)(C(=O)O)CC2 (stereo partly drawn) [Example 596, (1r,4R)-4-anilino-2′-{(2R)-3-[(6,7-dihydro-5H-cyclopenta[b]pyridin-4-yl)oxy]-2-methylpropyl}-2′,3′-dihydrospiro[cyclohexane-1,1′-indene]-4-carboxylic acid]",1820 nM,–

# Reference: patent US20240150293A1, “SPIROCYCLOHEXANE DERIVATIVES, PHARMACEUTICAL COMPOSITIONS CONTAINING THEM AND THEIR USES AS ANTI-APOPTOTIC INHIBITORS” (LES LABORATOIRES SERVIER, priority 2021, published 2024)
